Data: patent US20240041042A1, “1-(PYRIDYL)-5-AZINYLPYRAZOLE DERIVATIVES, AND THEIR USE FOR CONTROL OF UNDESIRED PLANT GROWTH” (Bayer Aktiengesellschaft, priority 2020, published 2024)
Read-outs that look alike come from different tables or passages of the source.

Columns and labels:
Type in all cases: in vivo
[1] = system: Alopecurus myosuroides (ALOMY); assay: Pre-emergence herbicidal action against ALOMY; conditions: scored visually after about 3 weeks, 100% = plants have died
Summary of the method: (§1)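 Dosages of 320 g/ha or less; pre-emergence; WP or EC in aqueous spray, 0.5% additive, 600 l/ha; greenhouse; visual % effect after ~3 wk relative to control pots.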

[2] = system: Amaranthus retroflexus (AMARE); assay: Pre-emergence herbicidal action against AMARE; conditions: visual scoring after about 3 weeks vs untreated controls
Summary of the method: as §1

Avena fatua (AVEFA) [3] = assay: Pre-emergence herbicidal action against AVEFA; conditions: 320 g/ha, visual scoring after about 3 weeks vs untreated controls
Summary of the method: as §1

[4] = system: Digitaria sanguinalis (DIGSA); assay: Pre-emergence herbicidal action against DIGSA
Summary of the method: as §1

[5] = system: Echinochloa crus-galli (ECHCG); assay: Pre-emergence herbicidal action against ECHCG; conditions: dosage 320 g/ha
Summary of the method: as §1

Lolium rigidum (LOLRI) [6] = assay: Pre-emergence herbicidal action against LOLRI; conditions: dosage 320 g/ha
Summary of the method: as §1

[7] = system: Matricaria inodora (MATIN); assay: Pre-emergence herbicidal action against MATIN; conditions: dosage 320 g/ha
Summary of the method: as §1

[8] = system: Pharbitis purpurea (PHBPU); assay: Pre-emergence herbicidal action against PHBPU; conditions: dosage 320 g/ha
Summary of the method: as §1

[9] = system: Polygonum convolvulus (POLCO); assay: Pre-emergence herbicidal action against POLCO
Summary of the method: as §1

Setaria viridis (SETVI) [10] = assay: Pre-emergence herbicidal action against SETVI; conditions: dosage 320 g/ha
Summary of the method: as §1

[11] = system: Verconica persica (VERPE); assay: Pre-emergence herbicidal action against VERPE
Summary of the method: as §1

Viola tricolor (VIOTR) [12] = assay: Pre-emergence herbicidal action against VIOTR
Summary of the method: as §1

[13] = system: Triticum aestivum (TRZAS); conditions: pre-emergence, 80 g/ha, crop plant compatibility, in comparison to untreated controls
Summary of the method: (§2)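 Crop injury rated visually in percent against untreated plants roughly 3 weeks after treatment (0% no effect, 100% plants dead). Compounds, as WP or EC with 0.5% additive in 600 l/ha water, were applied to the covering soil right after sowing; greenhouse growth. Suffixes a, b, c denote different dosages.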

[14] = system: Abutilon theophrasti (ABUTH); assay: Post-emergence herbicidal action against ABUTH; conditions: visual rating about 3 weeks after treatment vs untreated controls (100% = plants have died, 0% = like control plants)
Summary of the method: (§3)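 Post-emergence greenhouse spray, one-leaf stage, 600 l/ha water plus 0.5% additive; WP or EC formulations; application rates 320 g/ha or lower. Visual % damage vs untreated controls at ~3 weeks.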

[15] = system: Alopecurus myosuroides (ALOMY); assay: Post-emergence herbicidal action against ALOMY; conditions: 320 g/ha, visual rating about 3 weeks after treatment vs untreated controls (100% = plants have died, 0% = like control plants)
Summary of the method: as §3

[16] = system: Amaranthus retroflexus (AMARE); assay: Post-emergence herbicidal action against AMARE
Summary of the method: as §3

Avena fatua (AVEFA) [17] = assay: Post-emergence herbicidal action against AVEFA; conditions: 320 g/ha, visual rating about 3 weeks after treatment
Summary of the method: as §3

[18] = system: Echinochloa crus-galli (ECHCG); assay: Post-emergence herbicidal action against ECHCG; conditions: dosage 320 g/ha
Summary of the method: as §3

[19] = system: Matricaria inodora (MATIN); assay: Post-emergence herbicidal action against MATIN
Summary of the method: as §3

[20] = system: Pharbitis purpurea (PHBPU); assay: Post-emergence herbicidal action against PHBPU
Summary of the method: as §3

[21] = system: Polygonum convolvulus (POLCO); assay: Post-emergence herbicidal action against POLCO
Summary of the method: as §3

Setaria viridis (SETVI) [22] = assay: Post-emergence herbicidal action against SETVI; conditions: dosage 320 g/ha
Summary of the method: as §3

[23] = system: Verconica persica (VERPE); assay: Post-emergence herbicidal action against VERPE
Summary of the method: as §3

Viola tricolor (VIOTR) [24] = assay: Post-emergence herbicidal action against VIOTR
Summary of the method: as §3

Oryza sativa (ORYSA) [25] = conditions: crop plant compatibility, effect in comparison to untreated controls
Summary of the method: (§4)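 Foliar application at the one-leaf stage: WP/EC formulation, 0.5% additive, 600 l/ha water. Greenhouse-grown in sandy loam. Endpoint is visual % injury relative to untreated controls at about 3 weeks.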

Zea mays (ZEAMX) [26] = conditions: crop plant compatibility, effect vs untreated controls
Summary of the method: as §4

Oryza sativa (ORYSA) [27] = conditions: pre-emergence, 80 g/ha, crop plant compatibility, in comparison to untreated controls
Summary of the method: as §2

Lolium rigidum (LOLRI) [28] = assay: Post-emergence herbicidal action against LOLRI; conditions: dosage 320 g/ha
Summary of the method: as §3

[29] = system: Triticum aestivum (TRZAS); conditions: crop plant compatibility, 80 g/ha, effect vs untreated controls
Summary of the method: as §4

Zea mays (ZEAMX) [30] = conditions: pre-emergence, crop plant compatibility, in comparison to untreated controls
Summary of the method: as §2

[31] = system: Digitaria sanguinalis (DIGSA); assay: Post-emergence herbicidal action against DIGSA; conditions: 320 g/ha, visual rating about 3 weeks after treatment
Summary of the method: as §3

[32] = 80 g/ha, visual rating about 3 weeks after treatment vs untreated controls (100% = plants have died, 0% = like control plants)
[33] = 320 g/ha, visual rating about 3 weeks after treatment

| Pre-emergence action against TRZAS in % [13] [%] | Post-emergence action against ORYSA in % (Oryza sativa (ORYSA) [25]; 80 g/ha) [%] | Post-emergence action against ZEAMX in % (Zea mays (ZEAMX) [26]; 80 g/ha) [%] | Compound | Pre-emergence action against ALOMY ([1]; 320 g/ha) [%] | Pre-emergence action against AMARE in % ([2]; 80 g/ha) [%] | Pre-emergence action against AMARE in % ([2]; 320 g/ha) [%] | Pre-emergence action against ECHCG in % [5] [%] | Pre-emergence action against LOLRI in % (Lolium rigidum (LOLRI) [6]) [%] | Pre-emergence action against MATIN in % [7] [%] | Pre-emergence action against POLCO in % ([9]; dosage 320 g/ha) [%] | Pre-emergence action against SETVI in % (Setaria viridis (SETVI) [10]) [%] | Pre-emergence action against VERPE in % ([11]; dosage 320 g/ha) [%] | Post-emergence action against AMARE in % [16, 33] [%] | Post-emergence action against PHBPU in % ([20]; dosage 80 g/ha) [%] | Post-emergence action against PHBPU in % ([20]; dosage 320 g/ha) [%] | Post-emergence action against POLCO in % ([21]; dosage 320 g/ha) [%] | Post-emergence action against SETVI in % (Setaria viridis (SETVI) [22]) [%] | Post-emergence action against VERPE in % ([23]; 320 g/ha, VERPE) [%] | Post-emergence action against VERPE in % ([23]; dosage 80 g/ha) [%] | Post-emergence action against VIOTR in % (Viola tricolor (VIOTR) [24]; 320 g/ha) [%] | further results |
| --- | --- | --- | --- | --- | --- | --- | --- | --- | --- | --- | --- | --- | --- | --- | --- | --- | --- | --- | --- | --- | --- |
| 10 | 0 | 0 | COC(=O)[C@@H](C)Oc1nn(-c2ncccc2F)c(-c2cccnc2)c1Br [Example I-03] | 100 | 90 | 100 | 80 | 100 | 100 | 100 | 100 | 100 | 90 | 90 | 100 | 90 | 90 | 90 | 80 | 90 | Pre-emergence action against ALOMY ([1]; 80 g/ha): 90%; Pre-emergence action against AVEFA in % (Avena fatua (AVEFA) [3]): 80%; Pre-emergence action against DIGSA in % ([4]; 80 g/ha, visual scoring after about 3 weeks vs untreated controls): 90%; Pre-emergence action against DIGSA in % ([4]; dosage 320 g/ha): 100%; Pre-emergence action against PHBPU in % [8]: 90%; Pre-emergence action against POLCO in % ([9]; dosage 80 g/ha): 90%; Pre-emergence action against VERPE in % ([11]; dosage 80 g/ha): 90%; Pre-emergence action against VIOTR in % (Viola tricolor (VIOTR) [12]; 320 g/ha, Viola tricolor): 100%; Pre-emergence action against VIOTR in % (Viola tricolor (VIOTR) [12]; dosage 80 g/ha): 100%; Post-emergence action against ABUTH in % ([14]; 80 g/ha): 80%; Post-emergence action against ABUTH in % ([14]; 320 g/ha): 90%; Post-emergence action against ALOMY in % [15]: 100%; Post-emergence action against AMARE in % [16, 32]: 80%; Post-emergence action against AVEFA in % (Avena fatua (AVEFA) [17]): 90%; Post-emergence action against ECHCG in % [18]: 90%; Post-emergence action against MATIN in % ([19]; dosage 80 g/ha): 80%; Post-emergence action against MATIN in % ([19]; dosage 320 g/ha): 90%; Post-emergence action against POLCO in % ([21]; dosage 80 g/ha): 90%; Post-emergence action against VIOTR in % (Viola tricolor (VIOTR) [24]; 80 g/ha): 90% |
| 10 | 20 |  | CCOC(=O)COc1nn(-c2cccc(C)n2)c(-c2ccc(F)nc2)c1Cl [Example I-352] |  |  | 90 | 90 | 80 | 90 | 90 | 90 | 80 | 80 | 90 | 90 |  | 80 | 80 | 80 |  | Pre-emergence action against PHBPU in % [8]: 80%; Pre-emergence action against POLCO in % ([9]; dosage 80 g/ha): 80%; Pre-emergence action against ORYSA in % (Oryza sativa (ORYSA) [27]): 20%; Post-emergence action against AVEFA in % (Avena fatua (AVEFA) [17]): 80%; Post-emergence action against ECHCG in % [18]: 80%; Post-emergence action against LOLRI in % (Lolium rigidum (LOLRI) [28]): 80%; Post-emergence action against TRZAS in % [29]: 10% |
| 0 | 0 | 0 | COC(=O)[C@@H](C)Oc1nn(-c2ncccc2F)c(-c2cccnc2)c1C#N [Example I-04] | 100 | 90 | 100 | 90 | 90 | 90 | 100 | 100 | 100 | 90 |  | 100 | 90 | 100 |  |  | 80 | Pre-emergence action against VIOTR in % (Viola tricolor (VIOTR) [12]; 320 g/ha, Viola tricolor): 100%; Pre-emergence action against ZEAMX in % (Zea mays (ZEAMX) [30]; 80 g/ha): 0%; Post-emergence action against ABUTH in % ([14]; 80 g/ha): 90%; Post-emergence action against ABUTH in % ([14]; 320 g/ha): 90%; Post-emergence action against AMARE in % [16, 32]: 90%; Post-emergence action against DIGSA in % [31]: 80%; Post-emergence action against ORYSA in % (Oryza sativa (ORYSA) [25]; 320 g/ha): 0%; Post-emergence action against TRZAS in % [29]: 20% |
| 20 | 0 | 0 | CCOC(=O)COc1nn(-c2ccccn2)c(-c2ccc(Cl)nc2)c1Br [Example I-239] |  | 80 | 90 |  |  |  |  |  |  | 80 | 80 | 90 | 80 |  | 80 | 80 | 80 | Pre-emergence action against DIGSA in % ([4]; dosage 320 g/ha): 90%; Pre-emergence action against ZEAMX in % (Zea mays (ZEAMX) [30]; 80 g/ha): 0%; Pre-emergence action against ZEAMX in % (Zea mays (ZEAMX) [30]; 320 g/ha): 20%; Post-emergence action against MATIN in % ([19]; dosage 320 g/ha): 80%; Post-emergence action against POLCO in % ([21]; dosage 80 g/ha): 80%; Post-emergence action against VIOTR in % (Viola tricolor (VIOTR) [24]; 80 g/ha): 80%; Post-emergence action against ZEAMX in % (Zea mays (ZEAMX) [26]; 320 g/ha): 20% |
